{"source": "paper PMC3094704", "about": "“S-Petasin, the Main Sesquiterpene of Petasites formosanus, Inhibits Phosphodiesterase Activity and Suppresses Ovalbumin-Induced Airway Hyperresponsiveness” (Evidence-based Complementary and Alternative Medicine : eCAM, 2011)", "key": {"guinea pig trachea": {"test_system": "guinea pig trachea", "conditions": "precontracted by histamine, carbachol (CCh), KCl or leukotriene (LT) D4; read-out: IC50 in relaxing guinea pig trachea; cited from earlier work"}, "PDE1": {"test_system": "PDE1", "experiment": "Inhibition of PDE1 activity (two-step radioenzymatic assay)", "assay_type": "biochemical, guinea pig", "conditions": "mean ± SEM (n); read-out: IC50 on PDE isozyme 1", "protocol": "Activities of PDE1–5, partially separated from guinea pig lungs and hearts according to the method described by Ko et al., were measured with a two-step procedure according to the method of Thompson and Appleman, using cAMP with [^3H]-cAMP or cGMP with [^3H]-cGMP as substrates. The enzyme pμreparation (25 μL) was incubated for 30 min at 37°C in a total assay volume of […] containing 50 mM Tris-HCl (pH 7.4), 3 mM MgCl2, 1 mM dithiothreitol, 0.05% BSA, 1 μM cAMP with 0.2 μCi [^3H]-cAMP as a substrate alone or in the presence of 0.1 units calmodulin with 10 μM CaCl2 or 5 μM cGMP, and 1 μM cGMP with 0.2 μCi [^3H]-cGMP as another substrate alone or in the presence of 0.1 units calmodulin with 10 μM CaCl2. In tests of enzyme inhibition, the reaction mixture contained 10 μL of vehicle or inhibitors, at various concentrations of S-petasin or selective PDE1–5 inhibitors, such as vinpocetin [22], EHNA [23], milrinone, Ro 20-1724 [25] and zaprinast, as reference drugs. The reagents and homogenate were mixed on ice, and the reaction was initiated by transferring the mixture to a water bath at 37°C. Following a 30-min incubation, the reaction was stopped by transferring the reaction vessel to a bath of boiling water for 3 min. After cooling on ice, 20 μL of a 1 mg/mL solution of C. atrox snake venom was added to the reaction mixture, and the mixture was incubated at 37°C for 10 min. […]"}, "PDE5": {"biological_target": "T1, PDE5 (Cavia porcellus, UniProt H0VD23)", "T1 construct": "partially separated from guinea pig lungs and hearts; from tissue; host or cells: guinea pig lungs and hearts", "experiment": "Inhibition of PDE5 activity (two-step radioenzymatic assay)", "assay_type": "biochemical, guinea pig", "conditions": "mean ± SEM (n); read-out: IC50 on PDE isozyme 5", "protocol": "Activities of PDE1–5, partially separated from guinea pig lungs and hearts according to the method described by Ko et al., were measured with a two-step procedure according to the method of Thompson and Appleman, using cAMP with [^3H]-cAMP or cGMP with [^3H]-cGMP as substrates. The enzyme pμreparation (25 μL) was incubated for 30 min at 37°C in a total assay volume of […] containing 50 mM Tris-HCl (pH 7.4), 3 mM MgCl2, 1 mM dithiothreitol, 0.05% BSA, 1 μM cAMP with 0.2 μCi [^3H]-cAMP as a substrate alone or in the presence of 0.1 units calmodulin with 10 μM CaCl2 or 5 μM cGMP, and 1 μM cGMP with 0.2 μCi [^3H]-cGMP as another substrate alone or in the presence of 0.1 units calmodulin with 10 μM CaCl2. […] The reagents and homogenate were mixed on ice, and the reaction was initiated by transferring the mixture to a water bath at 37°C. Following a 30-min incubation, the reaction was stopped by transferring the reaction vessel to a bath of boiling water for 3 min. After cooling on ice, 20 μL of a 1 mg/mL solution of C. atrox snake venom was added to the reaction mixture, and the mixture was incubated at 37°C for 10 min. Unreacted [^3H]-cAMP or [^3H]-cGMP was removed by the addition of 500 μL of a 1-in-1 Tris-HCl (40 mM) buffer suspension of Dowex resin (1 × 8-200) with incubation on ice for 30 min. […]"}}}
{"compound": "C=C(C)[C@@H]1C[C@@]2(C)C(=CC1=O)CC[C@@H](OC(=O)/C=C\\SC)[C@@H]2C", "note": "[S-Petasin]", "values": [{"measurement": "IC50", "setting": "guinea pig trachea", "result": "< 10", "unit": "µM"}, {"measurement": "IC50", "setting": "PDE1", "result": "> 100", "unit": "µM"}, {"measurement": "IC50", "setting": "PDE5", "result": "> 100", "unit": "µM"}]}
